Among the test systems are MDA-MB-231 breast; RPMI-8226 leukemia; SNB-19 CNS; NCI-H23 lung; UACC-62 melanoma; RXF 393 renal; PC-3 prostate; IGROV1 ovarian; SNB-75 CNS.
Holding throughout (test): inhibition of tumour cell growth, NCI panel, 48 h

Each structure is given as a SMILES string.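 Protocol summary: plate cells (96-well), add compound at 5 concentrations, incubate 48 h, interpolate endpoints linearly. Here, GI50 denotes the concentration required for 50% inhibition of growth. TGI: total growth inhibition.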

Consider `CCN(CC)C(=S)SS(=O)(=O)c1cccc(N)c1`, for which the TGI in the experiment on MDA-MB-231 breast, in the experiment with RPMI-8226 leukemia, in the experiment on SNB-19 CNS, in the experiment with NCI-H23 lung, with UACC-62 melanoma and in the experiment with RXF 393 renal was greater than 100 µM in each case.

Regarding `CC(C)(C)n1c(=O)[nH]c(=O)n1C(C)(C)C`, the TGI in the experiment on MDA-MB-231 breast, with PC-3 prostate, with SNB-19 CNS, in the experiment on IGROV1 ovarian, in the experiment with NCI-H23 lung and in the experiment with SNB-75 CNS was greater than 100 µM throughout. Moreover, the TGI in the experiment on UACC-62 melanoma and in the experiment with RXF 393 renal was greater than 100 µM each time.

Turning to `CCN=C1C=CC(=C(c2ccc(N(CC)CC)cc2)c2ccc(N(CC)CC)cc2)c2ccccc21`, the GI50 with RPMI-8226 leukemia was 0.0233 µM; in the experiment with SNB-19 CNS it was 0.0504 µM; with SNB-75 CNS, 0.0304 µM; in the experiment on UACC-62 melanoma, 0.0983 µM; in the experiment on RXF 393 renal it was 0.0585 µM. Further, the TGI in the experiment on RPMI-8226 leukemia came to 0.0702 µM; in the experiment with SNB-19 CNS it was 1.47 µM; with SNB-75 CNS, 0.879 µM; with UACC-62 melanoma, 1.11 µM; in the experiment on RXF 393 renal, 0.384 µM.

On to `c1ccc(CN2CCC(Nc3ccccc3)(c3nnnn3Cc3ccccc3)CC2)cc1`, for which the TGI was 88.9 µM in the experiment on MDA-MB-231 breast; greater than 100 µM in the experiment with RPMI-8226 leukemia; greater than 100 µM with SNB-19 CNS; greater than 100 µM in the experiment on IGROV1 ovarian; greater than 100 µM in the experiment on NCI-H23 lung; 92.6 µM in the experiment with SNB-75 CNS. For the same compound, the TGI is greater than 100 µM in the experiment with UACC-62 melanoma and 73.8 µM in the experiment with RXF 393 renal.

Turning to `C=CCOn1c(C=C)nc2ccc(C)cc21`, the TGI in the experiment on MDA-MB-231 breast was 48.1 µM; with RPMI-8226 leukemia it was 24.9 µM; in the experiment with PC-3 prostate it was 31 µM; in the experiment on SNB-19 CNS, 46 µM; in the experiment with IGROV1 ovarian it was greater than 100 µM; in the experiment with NCI-H23 lung, 46 µM. The TGI in the experiment with SNB-75 CNS is 43.4 µM; in the experiment with UACC-62 melanoma, 26.8 µM.

`C/C(=N\NC(=S)N(C)C)c1cccnn1`: the TGI in the experiment on MDA-MB-231 breast is greater than 100 µM; in the experiment on RPMI-8226 leukemia, greater than 100 µM; in the experiment on PC-3 prostate, greater than 100 µM; in the experiment with SNB-19 CNS, greater than 100 µM; in the experiment on IGROV1 ovarian it was greater than 40.3 µM; with NCI-H23 lung, greater than 28.2 µM. The TGI in the experiment on SNB-75 CNS was greater than 100 µM; in the experiment with UACC-62 melanoma, 4.89 µM.

In the case of `C=CCC1C(O[Si](C)(C)C(C)(C)C)C(CO[Si](C)(C)C(C)(C)C)OC1n1ccc(=O)[nH]c1=O` (stereo not given), the TGI in the experiment on MDA-MB-231 breast came out at 4.52 µM; in the experiment with RPMI-8226 leukemia, 4.89 µM; with PC-3 prostate, 3.72 µM; in the experiment on SNB-19 CNS it was 3.06 µM; in the experiment on IGROV1 ovarian it was 3.02 µM; with NCI-H23 lung, 2.8 µM. Besides, the TGI worked out at 2.79 µM with SNB-75 CNS and 3.46 µM in the experiment on UACC-62 melanoma.

Turning to `CCCSc1ccc2[nH]c(N3C(=O)/C(=C/c4ccccc4)N=C3c3ccccc3)cc2c1`, the TGI in the experiment on RPMI-8226 leukemia is 42.9 µM; with PC-3 prostate it was greater than 50 µM; in the experiment with SNB-19 CNS, greater than 50 µM; with IGROV1 ovarian, greater than 50 µM; in the experiment with NCI-H23 lung, greater than 50 µM; in the experiment on SNB-75 CNS, greater than 50 µM. Moreover, the TGI in the experiment on UACC-62 melanoma and with RXF 393 renal was greater than 50 µM throughout.

As to `CC(C)C(C/C=C1\CC(CO)(COC(=O)C2CCCCC2)OC1=O)C(C)C` (stereo not given), the TGI in the experiment with MDA-MB-231 breast was found to be 36.1 µM; with PC-3 prostate, 37.2 µM; in the experiment on SNB-19 CNS, 31.4 µM; in the experiment on IGROV1 ovarian, 39.5 µM; in the experiment on NCI-H23 lung, 40.2 µM; with SNB-75 CNS, 26.5 µM. The TGI in the experiment with UACC-62 melanoma was greater than 100 µM; in the experiment on RXF 393 renal it was 35.4 µM.

Consider `COc1cc(C2C3=C(COC3=O)Oc3cc4c(cc32)OCO4)cc(OC)c1O` (stereo not given), for which the TGI in the experiment with MDA-MB-231 breast is greater than 24.9 µM; in the experiment on RPMI-8226 leukemia, greater than 41.9 µM; in the experiment on PC-3 prostate it was 4.67 µM; in the experiment with SNB-19 CNS it was 27.6 µM; in the experiment with IGROV1 ovarian, 21.9 µM; with NCI-H23 lung, 1.81 µM. For the same compound, the TGI with UACC-62 melanoma amounted to 2.69 µM.

Take `Cc1nc(N)c(N2CCN(CN)CC2)c(=O)[nH]1`: the TGI in the experiment on MDA-MB-231 breast, in the experiment with RPMI-8226 leukemia, in the experiment with PC-3 prostate, with SNB-19 CNS, in the experiment on NCI-H23 lung and in the experiment with SNB-75 CNS was greater than 100 µM each time.

For `O=[N+]([O-])c1cccc(N=Nc2c(O)c(S(=O)(=O)O)cc3cc(S(=O)(=O)O)ccc23)c1`, the TGI with MDA-MB-231 breast, in the experiment on PC-3 prostate, in the experiment with SNB-19 CNS, with IGROV1 ovarian, with NCI-H23 lung and in the experiment with SNB-75 CNS was greater than 100 µM throughout. Moreover, the TGI with UACC-62 melanoma and in the experiment on RXF 393 renal was greater than 100 µM throughout.

For `O=c1c(-c2ccccc2)c(SCCO)n(-c2ccccc2)c(=S)n1-c1ccccc1`, the TGI with RPMI-8226 leukemia, in the experiment on PC-3 prostate, in the experiment on SNB-19 CNS, with IGROV1 ovarian, with NCI-H23 lung and in the experiment with SNB-75 CNS was greater than 100 µM each time. This compound showed a TGI in the experiment with UACC-62 melanoma greater than 100 µM.

As for `COc1ccc(-c2oc3cc(O)cc(O)c3c(=O)c2OC)cc1`, the TGI with MDA-MB-231 breast was greater than 100 µM; with RPMI-8226 leukemia, 69.2 µM; in the experiment on PC-3 prostate, greater than 100 µM; in the experiment on SNB-19 CNS, greater than 100 µM; in the experiment with IGROV1 ovarian, greater than 100 µM; in the experiment on UACC-62 melanoma, greater than 100 µM.

In the case of `COc1ccc(OC)c(SC(CC(=O)c2ccccc2)c2ccccc2)c1` (stereo not given), the TGI turned out to be 25.7 µM in the experiment with MDA-MB-231 breast; 33.9 µM with PC-3 prostate; 27.8 µM in the experiment with SNB-19 CNS; 23.1 µM in the experiment with IGROV1 ovarian; 33.3 µM in the experiment on NCI-H23 lung; 33.6 µM in the experiment with SNB-75 CNS. The figures for the TGI in the experiment on UACC-62 melanoma and in the experiment on RXF 393 renal were 30.7 µM and 31.1 µM, respectively.

Regarding `C=CCP(=O)(CC=C)C(Cl)Cl`, the TGI in the experiment on MDA-MB-231 breast, with RPMI-8226 leukemia, in the experiment with PC-3 prostate, in the experiment with SNB-19 CNS, with IGROV1 ovarian and in the experiment on NCI-H23 lung was greater than 100 µM throughout. Moreover, the TGI in the experiment on SNB-75 CNS was greater than 100 µM.

For the compound `C=C(C)[C@H]1C2=CC(C)=C(O2)[C@@H](O[C@@H]2c3oc(cc3C)[C@H](C(=C)C)[C@H]3C=C(CC[C@H]2C(=C)C)C(=O)O3)[C@H](C(=C)C)CCC2=C[C@H]1OC2=O`, the TGI in the experiment with MDA-MB-231 breast, with RPMI-8226 leukemia, in the experiment with PC-3 prostate, with SNB-19 CNS, with IGROV1 ovarian and in the experiment with NCI-H23 lung was greater than 100 µM throughout. For the same compound, the TGI with SNB-75 CNS and in the experiment with UACC-62 melanoma was greater than 100 µM in each case.

As to `O=c1oc(C(C(F)(F)F)C(F)(F)F)nc2ccccc12`, the TGI in the experiment on MDA-MB-231 breast, in the experiment on RPMI-8226 leukemia, with PC-3 prostate, with SNB-19 CNS, with IGROV1 ovarian and with NCI-H23 lung was greater than 100 µM in each case. Also, in the experiment on RXF 393 renal, the TGI was greater than 100 µM.

In the case of `Cc1cc(OC(=O)NCn2cc(-c3ccccc3)nn2)ccc1Cl`, the TGI in the experiment on MDA-MB-231 breast, with RPMI-8226 leukemia, in the experiment on PC-3 prostate, in the experiment on SNB-19 CNS, in the experiment on IGROV1 ovarian and with NCI-H23 lung was greater than 100 µM throughout. The TGI with SNB-75 CNS was greater than 100 µM.

On to `CC(C)(C)OC(=O)NCC(CNC(=O)OC(C)(C)C)c1nc(C(N)=O)cs1`, for which the TGI with MDA-MB-231 breast, with PC-3 prostate, in the experiment with SNB-19 CNS, in the experiment on IGROV1 ovarian, in the experiment with NCI-H23 lung and in the experiment with SNB-75 CNS was greater than 100 µM in each case. Moreover, the TGI in the experiment with UACC-62 melanoma and in the experiment on RXF 393 renal was greater than 100 µM each time.

`O=C1NC(=O)C(C(CC(=O)c2ccc(Cl)cc2)c2ccc(Cl)cc2)C(=O)N1` (stereo not given): the TGI in the experiment with MDA-MB-231 breast, with RPMI-8226 leukemia, with PC-3 prostate, in the experiment on SNB-19 CNS, in the experiment on IGROV1 ovarian and in the experiment with NCI-H23 lung was greater than 100 µM in each case. Besides, the TGI with SNB-75 CNS and in the experiment on UACC-62 melanoma was greater than 100 µM in each case.

As for `Cc1ccc(S(=O)CC(CF)OCn2cc(C)c(=O)[nH]c2=O)cc1` (stereo not given), the TGI with MDA-MB-231 breast, in the experiment with RPMI-8226 leukemia, with PC-3 prostate, in the experiment with SNB-19 CNS, in the experiment on IGROV1 ovarian and in the experiment on NCI-H23 lung was greater than 100 µM each time. Besides, the TGI in the experiment with SNB-75 CNS and with UACC-62 melanoma was greater than 100 µM in each case.

For the compound `CN1CC2=C(NC(=S)NC2c2ccccc2)/C(=C/c2ccccc2)C1` (stereo not given), the TGI is greater than 10 µM in the experiment with MDA-MB-231 breast; greater than 100 µM in the experiment with RPMI-8226 leukemia; greater than 100 µM in the experiment on PC-3 prostate; greater than 100 µM in the experiment on SNB-19 CNS; greater than 100 µM in the experiment with IGROV1 ovarian; greater than 100 µM with NCI-H23 lung. The TGI in the experiment on SNB-75 CNS and in the experiment with UACC-62 melanoma was greater than 100 µM each time.

Turning to `C=C(C)CC1(O[Si](C)(C)C)C(=O)C(OCC)=C1OCC` (stereo not given), the TGI with MDA-MB-231 breast, in the experiment with PC-3 prostate, in the experiment on SNB-19 CNS, in the experiment on IGROV1 ovarian, in the experiment on NCI-H23 lung and with SNB-75 CNS was greater than 100 µM throughout. Further, the TGI with UACC-62 melanoma is greater than 100 µM.

As for `O=C(O)COc1cc(-c2ccccc2)nc2cc(F)ccc12`, the TGI in the experiment on MDA-MB-231 breast, in the experiment with RPMI-8226 leukemia, in the experiment on PC-3 prostate, in the experiment with SNB-19 CNS, with IGROV1 ovarian and in the experiment on NCI-H23 lung was greater than 100 µM throughout. For the same compound, the TGI in the experiment with SNB-75 CNS and with UACC-62 melanoma was greater than 100 µM each time.

Values taken from PubChem BioAssay (NCI).
